Laboratory results reported in US20190262431A1, “CBL-FAMILY INHIBITOR COMPRISING A CBL-FAMILY TKB DOMAIN BINDING PEPTIDE FOR THE PREVENTION OR TREATMENT OF DISEASES” (IMBA - INSTITUT FÜR MOLEKULARE BIOTECHNOLOGIE GMBH, priority 2016, published 2019).
Non-standard residues stand in square brackets, D forms with d. Residues, ends and D or L forms follow the SMILES beside them. No end group written: not given here. *: point of attachment. pY = N[C@@H](Cc1ccc(OP(=O)(O)O)cc1)C(=O)O; Cbz = O=C(OCc1ccccc1)*

Experiments:
human CD4+ T cells = assay: Human T cell assays (CFSE proliferation, IFN-γ ELISA, CD69), CD4+ T cells; assay type: cell-based
Protocol: (§1) Peripheral blood mononuclear cells (PBMC) were purified from human blood using a Lymphoprep™ PBMC isolation kit (Stemcell Technologies), according to the manufacturer's instructions. Human CD4+ or CD8+ T cells were purified from PBMC using CD4 or CD8 MicroBeads (Miltenyi Biotec), respectively, and MACS technology (Miltenyi Biotec). For proliferation assays, flat-bottom 96-well plates were coated with CD3 (OKT3, 0.1 μg/ml) and CD28 (CD28.2, 0.1 μg/ml) antibodies in PBS at 37 degrees C. for 2 h. To monitor proliferative expansion, assays were carried out with carboxyfluorescein succinimidyl ester (CFSE; eBioscience) labeled T cells. T cells were cultured in X-VIVO 15 chemically defined, serum free hematopoietic cell medium (Lonza), with the indicated concentrations of peptide or vehicle control. After 72 h […], cells were labeled with antibodies against CD4 (RPA-T4, Brilliant Violet 510 labeled, Biolegend) or CD8 (RPA-T8, APC-eFluor 780 labeled, eBioscience), and CD69 (FN50, PE/Cy7 labeled, Biolegend), and analyzed on a Beckman Coulter Gallios flow cytometer. Data were analyzed using Beckman Coulter Kaluza software. IFN-γ secretion into cell culture supernatants of the proliferation assays was determined by enzyme-linked immunosorbent assays (ELISA) according to the manufacturer's (BD Biosciences) instructions.

BM-DC [1] = assay: Cytokine secretion by Candida albicans stimulated BM-DC (ELISA); assay type: cell-based, mouse; conditions: 18 h
Protocol: Cytokine secretion by cell culture supernatants or in the peritoneal lavage was assessed with ELISA kits purchased from eBioscience (IL-1β, TNF, IL-6, IL-12, IL-23) or R&D Systems (IL-1Ra) according to the manufacturer's instructions. Production of reactive oxygen species (ROS) was measured with as assay using luminol as the probe in real-time over 90 min as described previously (Bourgeois et al., 2009). Caspase-8 activity was assessed using the CaspGLOW assay (Promega) according to the manufacturer's instructions.
(§2) BM-M and BM-DC were stimulated with C. albicans (strain SC5314), Zymosan (Invivogen), Curdlan (Invivogen), TDM (Invivogen), CpG (Invivogen), LPS (Invivogen), or C. albicans hyphae. For inhibition experiments cells were treated with the Syk inhibitor R406 (Selleckchem), anti-Dectin-1 antibody (Invivogen), MG132 (Calbiochem), or Dynasore (Sigma-Aldrich), 30 min prior to stimulation (MOI: Immune cell: C. albicans=1:2). Fungal isolates of Candida krusei, Candida glabrata, and Candida dubliniensis were kindly provided by the Allgemeines Krankenhaus Vienna (AKH). Fungal isoates were tested by PCR to verify the respective species.

BM-DC [2] = assay: Killing assay (fungicidal activity against Candida albicans); assay type: cell-based, mouse; conditions: for BM-DC mediated Candida albicans killing in the presence of inhibitor: inhibitor added 30 min prior to stimulation
Protocol: To assess the fungicidal activity, the indicated immune cells were plated in replicates at a density of 1×10^5 cells/well in 96-well plates. Cells were incubated with Candida albicans at a multiplicity of infection of 1:500 for 24 h. After incubation, phagocytes were fixed by the addition of paraformaldehyde at a final concentration of 4%. Subsequently, Candida albicans were stained with Crystal Violet (Sigma) and killing was assessed by a comparison of colony numbers in wells with or without phagocytes.
as §2

murine CD4+ T cells = assay: Murine T cell proliferation assay; assay type: cell-based, mouse; conditions: for proliferative response of cblb Δ/Δ CD4+ T cells: CD3 or CD3 plus CD28 antibodies, versus untreated cells; for proliferative response of cblb Δ/Δ CD4+ T cells / proliferative response of cblb+/+ CD4+ T cells: 3 days; for proliferative response of cblb+/+ CD4+ T cells: plate bound CD3 or CD3 plus soluble CD28 antibodies, versus no peptide
Protocol: Murine CD4+ T cells were purified from pooled spleens and lymph nodes using MACS technology (Miltenyi Biotec). […] Purified T cells were labeled with the cell proliferation dye eFluor 670 (eBioscience) and cultured in IMDM cell culture medium (Gibco), supplemented with 10% fetal bovine serum (Sigma), L-Glutamine (Thermo Fisher), Penicillin and Streptomycin (Thermo Fisher), in the presence of 5 ng/ml of recombinant IL-2 (Biolegend) and the indicated concentrations of peptide. After 3 days, cells were stained with the fixable viability dye eFluor 780 (Thermo Fisher), and stained with a CD4 antibody (RM4-5, Brilliant Violet 711, Biolegend). Cells were analyzed with a BD LSR Fortessa II flow cytometer (Becton Dickinson), subsequently, and data were analyzed using the FlowJo v10.0.8 software (Tree Star).

human CD8+ T cells = assay: Human T cell assays (CFSE proliferation), CD8+ T cells; assay type: cell-based; conditions: plate bound CD3/CD28 antibodies; 3 days; CFSE dilution
Protocol: as §1

phosphorylated Syk = assay: Western blotting of Syk in Candida albicans stimulated BM-DC with MG132; assay type: cell-based, mouse; conditions: MG132 10 μM
Protocol: as §2
Western blotting was performed according to standard protocols. Blots were blocked for 1 hour with 5% bovine serum albumin in 1×TBS/0.1% Tween-20, or 4% BSA in 1×TBS/0.1% Tween-20 for phosphorylated epitopes, followed by overnight incubation at 4° C. with primary antibodies. Subsequently, blots were washed three times in 1×TBS/0.1% Tween-20 for 15 min, followed by incubation with HRP-conjugated secondary antibodies (1:2500; GE Healthcare # NA9340V) for 45 min at room temperature, washed three times in 1×TBS/0.1% Tween-20 for 15 min and visualized using enhanced chemiluminescence (ECL Plus, Pierce). […] Precipitates were analyzed by Western blotting using the indicated antibodies. […] Precipitates were analyzed by Western blotting with the indicated antibodies.

BM-DC [3] = assay: ROS production by BM-DC co-cultured with Candida albicans (luminol assay); assay type: cell-based, mouse; conditions: Cbl-b+/+ BM-DC; 100 μM peptide; versus no peptide
Text: BM-DC or BM-M were obtained by differentiation from bone marrow precursor cells.

Candida albicans = assay: Systemic (intravenous) Candida albicans infection of mice; assay type: in vivo, mouse; conditions: control peptides versus untreated control cohort
Protocol: 8-10 week old mice were infected with 10^5 colony forming units (CFU) of C. albicans (strain SC5314), 10^5 colony forming units (CFU) of C. dubliniensis, or 10^5 CFUs of Listeria monocytogenes (strain EGD) intravenously. C. albicans CFUs were assessed from various organs as described (Wirnsberger et al., 2014). For clodronate or PBS liposome treatment experiments, mice were injected intraperitoneally with 100 ul/10 g mouse weight of liposomes both 24 h before and 24 h after intravenous C. albicans infections. Clodronate or PBS control liposomes were obtained from clodronateliposomes.org, and handled according to the manufacturer's instructions.

B16-SIY melanoma cells = assay: B16-SIY in vivo tumor model; parameters: species or system mouse; conditions: C57Bl/6 mice; 100 μg i.p. every other day
Protocol: B16-SIY tumor cells as described in (Spranger, 2014) were cultured in DMEM cell culture media (Gibco) supplemented with 10% fetal bovine serum (Sigma), L-Glutamine (Thermo Fisher), Penicillin and Streptomycin (Thermo Fisher). 10^6 tumor cells were transplanted intradermally into C57Bl/6 mice. Mice were injected intraperitoneally with 100 μg of the indicated peptides or vehicle control every other day starting 24 h after tumor cell inoculation. Bodyweight and tumor volume were measured at the indicated time points, subsequently.

## DRQIKIWFQNRRMKWKKEAVPLYAWYPNPSTFES (DRQIKIWFQNRRMKWKKEAVPLYAW[pY]PNPSTFES; listed as Homo sapiens) [H2]
Human CD4+ T cells; scrambled control, compared with H1
  effects on proliferation, IFN-γ and CD69 of human T cells: Slight effects

## COc1cc(Nc2ncc(F)c(Nc3ccc4c(n3)NC(=O)C(C)(C)O4)n2)cc(OC)c1OC [R406]
BM-DC [1]; BM-DC of all three genotypes
  IL-1β secretion by Candida albicans stimulated BM-DC: almost completely abrogated
BM-DC [1]; all three genotypes
  release of IL-6 by Candida albicans stimulated BM-DC: almost completely abrogated
  release of TNF by Candida albicans stimulated BM-DC: almost completely abrogated
BM-DC [2]
  BM-DC mediated Candida albicans killing in the presence of inhibitor: almost completely abrogated

## O=C(N/N=C/c1ccc(O)c(O)c1)c1cc2ccccc2cc1O [Dynasore]
BM-DC [2]
  BM-DC mediated Candida albicans killing in the presence of inhibitor: abrogated

## KIKKTKKKGRKKIKKTKKKGRKSTPNFGVYGTSPWGPE (KIKKTKKKGRKKIKKTKKKGRKSTPNFGV[pY]GTSPWGPE; listed as Mus musculus) [M4]
Murine CD4+ T cells
  proliferative response of cblb Δ/Δ CD4+ T cells: only mildly increased
  proliferative response of cblb+/+ CD4+ T cells: only mildly increased

## DRQIKIWFQNRRMKWKKSTVSFNPYEPELAPWA (DRQIKIWFQNRRMKWKKSTVSFNP[pY]EPELAPWA; listed as Homo sapiens) [H1]
Human CD4+ T cells; percentage of CD69+ of total CD4+ cells, versus untreated cells
  activation marker CD69 on T cells: dose dependent upregulation
Human CD4+ T cells; plate bound CD3/CD28 antibodies, 3 days, CFSE dilution
  proliferative response of human CD4+ T cells: dose dependent significant increase
Human CD4+ T cells; supernatants of proliferation assay, ELISA
  production of IFN-γ by CD4+ T cells: increased significantly
Human CD8+ T cells
  proliferative response of human CD8+ T cells: dose dependent significant increase

## CC(C)C[C@@H](C=O)NC(=O)[C@H](CC(C)C)NC(=O)[C@H](CC(C)C)NC(=O)OCc1ccccc1 [MG132] (Cbz-Leu-Leu-Leu-aldehyde)
Phosphorylated Syk; Cbl-b Δ/Δ BM-DC stimulated with Candida albicans
  levels of phosphorylated Syk: did not change
Phosphorylated Syk; Cbl-b+/+ BM-DC stimulated with Candida albicans
  phosphorylated Syk in lysates: increase

## DRQIKIWFQNRRMKWKK [Antennapedia peptide, cell penetrating peptide derived from the Drosophila Antennapedia homeodomain, used alone as control]
BM-DC [2]; 24 h co-culture, 100 μM peptide
  fungicidal activity (killing capacity) of BM-DC upon Candida albicans infection: did not affect
BM-DC [3]
  ROS production by BM-DC in response to Candida albicans stimulation: did not affect
Candida albicans
  morbidity or mortality: did not affect

## KIKKTKKKGRKKIKKTKKKGRKSTVSFNPYEPTGGPWG (KIKKTKKKGRKKIKKTKKKGRKSTVSFNP[pY]EPTGGPWG; listed as Mus musculus) [M3]
Murine CD4+ T cells
  proliferative response of cblb Δ/Δ CD4+ T cells: marked increase
  proliferative response of cblb+/+ CD4+ T cells: dose dependent increase
Murine CD4+ T cells; low concentrations of CD3, with or without CD28 co-stimulation
  effect on proliferation under suboptimal stimulatory conditions: more pronounced effects

## CC[C@H](C)[C@H](NC(=O)[C@H](CCCCN)NC(=O)[C@@H](NC(=O)[C@H](CCC(N)=O)NC(=O)[C@H](CCCNC(=N)N)NC(=O)[C@@H](N)CC(=O)O)[C@@H](C)CC)C(=O)N[C@@H](Cc1c[nH]c2ccccc12)C(=O)N[C@@H](Cc1ccccc1)C(=O)N[C@@H](CCC(N)=O)C(=O)N[C@@H](CC(N)=O)C(=O)N[C@@H](CCCNC(=N)N)C(=O)N[C@@H](CCCNC(=N)N)C(=O)N[C@@H](CCSC)C(=O)N[C@@H](CCCCN)C(=O)N[C@@H](Cc1c[nH]c2ccccc12)C(=O)N[C@@H](CCCCN)C(=O)N[C@@H](CCCCN)C(=O)N[C@@H](CO)C(=O)N[C@H](C(=O)N1CCC[C@H]1C(=O)N[C@@H](CC(N)=O)C(=O)N[C@@H](Cc1ccccc1)C(=O)NCC(=O)N[C@H](C(=O)N[C@@H](Cc1ccc(OP(=O)(O)O)cc1)C(=O)NCC(=O)N[C@H](C(=O)N[C@@H](CO)C(=O)N1CCC[C@H]1C(=O)N[C@@H](Cc1c[nH]c2ccccc12)C(=O)NCC(=O)N1CCC[C@H]1C(=O)N[C@@H](CCC(=O)O)C(=O)O)[C@@H](C)O)C(C)C)[C@@H](C)O [M2]
B16-SIY melanoma cells
  bodyweight gain: did not affect
